Data as given in US8815840B2, “Carbazole and carboline kinase inhibitors” (Bristol-Myers Squibb Company, priority 2008, dated 2014).
pIC50: −log10 of the molar value. Counter-ions that a name gives are not always drawn.

Molecular target: JAK2 (Homo sapiens (Human), UniProt O60674)
Test: JAK2 Tyrosine Kinase Assay
Format: biochemical
Details: ATP 30 μM; JAK2 1 nM; 60 min at room temperature
Experimental: JAK2 Tyrosine Kinase Assay
The assays were performed in V-bottom 384-well plates. […] The reaction was initiated by the combination of JAK2 with substrates and test compounds. The reaction was incubated at room temperature for 60 min. and terminated by adding 45 μl of 35 mM EDTA to each sample. The reaction mixture was analyzed on the Caliper LABCHIP® 3000 by electrophoretic separation of the fluorescent substrate and phosphorylated product. […] Compounds were dissolved at 10 mM in dimethylsulfoxide (DMSO) and evaluated at eleven concentrations, each in duplicate. IC50 values were derived by non-linear regression analysis

Chain of JAK2 (O60674 whole entry): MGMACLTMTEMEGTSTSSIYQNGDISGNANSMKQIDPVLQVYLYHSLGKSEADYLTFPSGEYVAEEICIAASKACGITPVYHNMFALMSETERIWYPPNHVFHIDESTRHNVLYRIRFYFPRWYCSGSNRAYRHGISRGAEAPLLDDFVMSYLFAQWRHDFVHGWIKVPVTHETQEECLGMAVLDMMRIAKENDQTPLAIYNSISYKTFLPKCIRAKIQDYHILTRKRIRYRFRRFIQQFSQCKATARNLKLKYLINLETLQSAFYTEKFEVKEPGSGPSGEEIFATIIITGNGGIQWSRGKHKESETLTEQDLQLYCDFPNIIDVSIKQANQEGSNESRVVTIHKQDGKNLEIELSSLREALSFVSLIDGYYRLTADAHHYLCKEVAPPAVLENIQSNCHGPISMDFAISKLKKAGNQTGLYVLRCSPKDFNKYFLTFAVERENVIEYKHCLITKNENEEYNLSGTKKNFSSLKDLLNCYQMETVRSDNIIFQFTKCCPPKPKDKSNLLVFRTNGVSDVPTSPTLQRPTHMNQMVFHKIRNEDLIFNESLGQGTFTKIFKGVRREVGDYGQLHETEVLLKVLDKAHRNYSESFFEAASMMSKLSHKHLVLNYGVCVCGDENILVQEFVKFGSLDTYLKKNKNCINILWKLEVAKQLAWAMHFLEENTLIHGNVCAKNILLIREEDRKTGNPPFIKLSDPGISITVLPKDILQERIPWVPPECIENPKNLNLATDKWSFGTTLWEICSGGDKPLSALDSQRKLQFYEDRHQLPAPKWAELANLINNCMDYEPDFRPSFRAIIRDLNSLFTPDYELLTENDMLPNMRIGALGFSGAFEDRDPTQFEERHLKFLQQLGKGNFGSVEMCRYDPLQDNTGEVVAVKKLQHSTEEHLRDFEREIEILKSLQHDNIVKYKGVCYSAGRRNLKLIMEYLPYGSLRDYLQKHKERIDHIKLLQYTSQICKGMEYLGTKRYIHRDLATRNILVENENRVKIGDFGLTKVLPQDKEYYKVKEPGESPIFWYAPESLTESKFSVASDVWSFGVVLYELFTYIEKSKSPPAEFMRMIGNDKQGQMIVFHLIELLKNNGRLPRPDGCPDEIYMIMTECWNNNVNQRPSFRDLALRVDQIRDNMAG

Row | pIC50 | Structure (SMILES)
1 | 9.00 | NC(=O)c1cc(-c2cccc(Cl)c2)cc2c1[nH]c1ccc(C(=O)N3CCOCC3)cc12 [Example 15, 3-(3-chlorophenyl)-6-(morpholine-4-carbonyl)-9H-carbazole-1-carboxamide]
2 | 8.22 | NC(=O)c1cc(-c2ccc(Cl)c(Cl)c2)cc2c1[nH]c1ccc(C(=O)N[C@@H]3CCNC3)cc12 [Example 49, 3-(3,4-dichlorophenyl)-N^6-((3R)-3-pyrrolidinyl)-9H-carbazole-1,6-dicarboxamide]
3 | 8.22 | NC(=O)c1cc(-c2ccc(Cl)c(Cl)c2)cc2c1[nH]c1ccc(C(=O)NCCN3CCOCC3)cc12 [Example 51, 3-(3,4-dichlorophenyl)-N^6-(2-(4-morpholinyl)ethyl)-9H-carbazole-1,6-dicarboxamide]
4 | 8.22 | CN(C)CCNC(=O)c1ccc2[nH]c3c(C(N)=O)cc(-c4ccc(Cl)c(Cl)c4)cc3c2c1 [Example 56, 3-(3,4-dichlorophenyl)-N^6-(2-(dimethylamino)ethyl)-9H-carbazole-1,6-dicarboxamide]
5 | 8.22 | CN1CCN(C(=O)c2ccc3c(c2)[nH]c2c(C(N)=O)cc(-c4ccc(Cl)c(Cl)c4)cc23)CC1 [Example 61, 3-(3,4-dichlorophenyl)-7-((4-methyl-1-piperazinyl)carbonyl)-9H-carbazole-1-carboxamide]
6 | 6.80 | COc1cc(-c2cc(C(N)=O)c3[nH]c4cc(C(=O)N5CCN(C)CC5)ccc4c3c2)ccc1NC(=O)OC(C)(C)C [Example 73, tert-butyl (4-(1-carbamoyl-7-((4-methyl-1-piperazinyl)carbonyl)-9H-carbazol-3-yl)-2-methoxyphenyl)carbamate]
7 | 8.15 | CN1CCN(C(=O)c2ccc3c(c2)[nH]c2c(C(N)=O)cc(-c4ccc(Cl)nc4)cc23)CC1 [Example 76, 3-(6-chloro-3-pyridinyl)-7-((4-methyl-1-piperazinyl)carbonyl)-9H-carbazole-1-carboxamide]
8 | 8.22 | COc1ccc(-c2cc(C(N)=O)c3[nH]c4cc(C(=O)N5CCN(C)CC5)ccc4c3c2)cc1F [Example 79, 3-(3-fluoro-4-methoxyphenyl)-7-((4-methyl-1-piperazinyl)carbonyl)-9H-carbazole-1-carboxamide]
9 | 8.22 | CN1CCN(C(=O)c2ccc3c(c2)[nH]c2c(C(N)=O)cc(-c4ccccc4)cc23)CC1 [Example 80, 7-((4-methyl-1-piperazinyl)carbonyl)-3-phenyl-9H-carbazole-1-carboxamide]
10 | 8.22 | COc1cccc(-c2cc(C(N)=O)c3[nH]c4cc(C(=O)N5CCN(Cc6cccnc6)CC5)ccc4c3c2)c1 [Example 88, 3-(3-methoxyphenyl)-7-((4-(3-pyridinylmethyl)-1-piperazinyl)carbonyl)-9H-carbazole-1-carboxamide]
11 | > 9.00 | COc1cccc(-c2cc(C(N)=O)c3[nH]c4cc(C(=O)N(C)CCS(C)(=O)=O)ccc4c3c2)c1 [Example 96, 3-(3-methoxyphenyl)-N^7-methyl-N^7-(2-(methylsulfonyl)ethyl)-9H-carbazole-1,7-dicarboxamide]
12 | > 9.00 | COCCCN1CCN(C(=O)c2ccc3c(c2)[nH]c2c(C(N)=O)cc(-c4cccc(OC)c4)cc23)CC1 [Example 106, 3-(3-methoxyphenyl)-7-((4-(3-methoxypropyl)-1-piperazinyl)carbonyl)-9H-carbazole-1-carboxamide]
13 | 8.22 | COc1cccc(-c2cc(C(N)=O)c3[nH]c4cc(C(=O)N5C[C@@H]6C[C@H]5CO6)ccc4c3c2)c1 [Example 124, 3-(3-methoxyphenyl)-7-((1S,4S)-2-oxa-5-azabicyclo[2.2.1]hept-5-ylcarbonyl)-9H-carbazole-1-carboxamide]
14 | 5.91 | CNC(=O)c1cc(-c2ccc(OC)cc2)nc2c1[nH]c1cc(OC)ccc12 [Example 128, 7-Methoxy-2-(4-methoxyphenyl)-N-methyl-5H-pyrido[3,2-b]indole-4-carboxamide]
15 | 6.96 | COc1ccc(-c2cc(C(N)=O)c3[nH]c4nc(OC)ccc4c3n2)cc1 [Example 129, 7-Methoxy-2-(4-methoxyphenyl)-5H-pyrido[2′,3′:4,5]pyrrolo[2,3-b]pyridine-4-carboxamide]
16 | 8.15 | COc1cccc(-c2cc(C(N)=O)c3[nH]c4cc(NC(=O)OCCN)ccc4c3c2)c1 [Example 132, 2-aminoethyl (8-carbamoyl-6-(3-methoxyphenyl)-9H-carbazol-2-yl)carbamate]
17 | 6.82 | CC(C)Oc1ccc2[nH]c3c(C(N)=O)cc(-c4ccc(Cl)c(Cl)c4)cc3c2c1 [Example 140, 3-(3,4-Dichlorophenyl)-6-isopropoxy-9H-carbazole-1-carboxamide]
18 | 6.51 | COC(=O)c1ccc2c(c1)[nH]c1c(C(N)=O)cc(-c3cccc(OC)c3)cc12 [Example 142, Methyl 8-carbamoyl-6-(3-methoxyphenyl)-9H-carbazole-2-carboxylate]
19 | 6.96 | COC(=O)c1cccc2[nH]c3c(C(N)=O)cc(-c4cccc(OC)c4)cc3c12 [Example 143, Methyl 8-carbamoyl-6-(3-methoxyphenyl)-9H-carbazole-4-carboxylate]

Row | pIC50 | Structure (SMILES)
20 | 8.22 | NC(=O)c1cc(-c2ccc(OC(F)(F)F)cc2)cc2c1[nH]c1cc(C(=O)N3CCOCC3)ccc12 [Example 151, 7-(4-morpholinylcarbonyl)-3-(4-(trifluoromethoxy)phenyl)-9H-carbazole-1-carboxamide]
21 | 8.22 | COc1ccc(-c2cc(C(N)=O)c3[nH]c4ccc(C(=O)N5CCOCC5)cc4c3c2)cc1OC [Example 166, 3-(3,4-dimethoxyphenyl)-6-(4-morpholinylcarbonyl)-9H-carbazole-1-carboxamide]
22 | 8.70 | NC(=O)c1cc(-c2ccc(Cl)c(Cl)c2)cc2c1[nH]c1ccc(C(=O)N3CCOC(CO)C3)cc12 (stereo not shown) [Example 180, 3-(3,4-dichlorophenyl)-6-(2-(hydroxymethyl)morpholine-4-carbonyl)-9H-carbazole-1-carboxamide]
23 | 6.80 | COc1cc(-c2cc(C(N)=O)c3[nH]c4ccc(C(=O)N5CCOC(CO)C5)cc4c3c2)cc(OC)c1OC (stereo not shown) [Example 183, 6-(2-(hydroxymethyl)morpholine-4-carbonyl)-3-(3,4,5-trimethoxyphenyl)-9H-carbazole-1-carboxamide]
24 | 9.00 | NC(=O)c1cc(-c2cccc(Cl)c2)cc2c1[nH]c1ccc(C(=O)N3CCOC(CO)C3)cc12 (stereo not shown) [Example 185, 3-(3-chlorophenyl)-6-(2-(hydroxymethyl)morpholine-4-carbonyl)-9H-carbazole-1-carboxamide]
25 | 8.70 | COc1ccc(-c2cc(C(N)=O)c3[nH]c4ccc(C(=O)N5CCC[C@H](O)C5)cc4c3c2)cc1F [Example 190, (S)-3-(3-fluoro-4-methoxyphenyl)-6-(3-hydroxypiperidine-1-carbonyl)-9H-carbazole-1-carboxamide]
26 | 9.00 | COc1ccc(-c2cc(C(N)=O)c3[nH]c4ccc(C(=O)N5C[C@@H]6C[C@H]5CO6)cc4c3c2)cc1F [Example 196, 6-((1S,4S)-2-oxa-5-azabicyclo[2.2.1]heptane-5-carbonyl)-3-(3-fluoro-4-methoxyphenyl)-9H-carbazole-1-carboxamide]
27 | 9.00 | COc1ccc(-c2cc(C(N)=O)c3[nH]c4ccc(C(=O)N5CCC(O)CC5)cc4c3c2)cc1F [Example 197, 3-(3-fluoro-4-methoxyphenyl)-6-(4-hydroxypiperidine-1-carbonyl)-9H-carbazole-1-carboxamide]
28 | 7.47 | COc1cccc(-c2cc(C(N)=O)c3[nH]c4ccncc4c3c2)c1 [Example 203, 8-(3-Methoxyphenyl)-5H-pyrido[4,3-b]indole-6-carboxamide, HCl]
29 | 7.54 | COc1cccc(-c2cc(C(N)=O)c3[nH]c4cccnc4c3c2)c1 [Example 204, 8-(3-Methoxyphenyl)-5H-pyrido[3,2-b]indole-6-carboxamide, HCl]
30 | 6.77 | COc1ccc(-c2nc(C(N)=O)c3[nH]c4cc(OC)ccc4c3n2)cc1 [Example 210, 7-Methoxy-2-(4-methoxyphenyl)-5H-pyrimido[5,4-b]indole-4-carboxamide]
31 | > 9.00 | COc1ccc(-c2cc(C(N)=O)c3[nH]c4cc(C(=O)N5CC[C@H](N(C)C)C5)ccc4c3n2)cc1F [Example 211, (S)-7-(3-(Dimethylamino)pyrrolidine-1-carbonyl)-2-(3-fluoro-4-methoxyphenyl)-5H-pyrido[3,2-b]indole-4-carboxamide]
32 | 8.15 | NC(=O)c1cc(-c2ccc(F)c(F)c2)nc2c1[nH]c1cc(C(=O)N3CCOCC3)ccc12 [Example 216, 2-(3,4-difluorophenyl)-7-(4-morpholinylcarbonyl)-5H-pyrido[3,2-b]indole-4-carboxamide]
33 | 8.70 | NC(=O)c1cc(-c2ccc(Cl)cc2)nc2c1[nH]c1cc(C(=O)N3CCOCC3)ccc12 [Example 227, 2-(4-chlorophenyl)-7-(4-morpholinylcarbonyl)-5H-pyrido[3,2-b]indole-4-carboxamide]
34 | 8.15 | NC(=O)c1cc(-c2ccc(Cl)c(Cl)c2)nc2c1[nH]c1cc(OCCN3CCOCC3)ccc12 [Example 245]
35 | 9.00 | CC(C)(C)N1CCN(Cc2ccc3c(c2)[nH]c2c(C(N)=O)cc(-c4cccc(Cl)c4)nc23)CC1 [Example 256, 7((4-tert-Butyl-1-piperazinyl)methyl)-2-(3-chlorophenyl)-5H-pyrido[3,2-b]indole-4-carboxamide]
36 | 9.00 | NC(=O)c1cc(-c2cccc(Cl)c2)nc2c1[nH]c1ccc(CN3CCOCC3)cc12 [Example 257, 2-(3-Chlorophenyl)-8-(morpholinomethyl)-5H-pyrido[3,2-b]indole-4-carboxamide]
37 | 9.00 | CN1CCN(c2ccc3c(c2)[nH]c2c(C(N)=O)cc(-c4cccc(Cl)c4)nc23)CC1 [Example 309, 2-(3-chlorophenyl)-7-(4-methylpiperazin-1-yl)-5H-pyrido[3,2-b]indole-4-carboxamide]
